Experimental data published in PMC10518257 (Nature Cancer, 2023).

How the values were obtained:
[1] = target: T1, panel of 255 (vepafestinib) or 256 (all other inhibitors) recombinant kinases (Homo sapiens, UniProt P07333); experiment: Kinase selectivity profiling at a single concentration (Carna Biosciences); assay type: biochemical; conditions: 17 nM
T1 construct: purchased Carna Biosciences

[2] = target: T2, panel of 255 (vepafestinib) or 256 (all other inhibitors) recombinant kinases (Homo sapiens, UniProt Q16832); experiment: as above; assay type: biochemical; conditions: 17 nM
T2 construct: purchased Carna Biosciences

[3] = target: T3, panel of 255 (vepafestinib) or 256 (all other inhibitors) recombinant kinases (Homo sapiens, UniProt P12931); experiment: as above; assay type: biochemical; conditions: 17 nM
T3 construct: purchased Carna Biosciences
T3 sequence (P12931 whole entry): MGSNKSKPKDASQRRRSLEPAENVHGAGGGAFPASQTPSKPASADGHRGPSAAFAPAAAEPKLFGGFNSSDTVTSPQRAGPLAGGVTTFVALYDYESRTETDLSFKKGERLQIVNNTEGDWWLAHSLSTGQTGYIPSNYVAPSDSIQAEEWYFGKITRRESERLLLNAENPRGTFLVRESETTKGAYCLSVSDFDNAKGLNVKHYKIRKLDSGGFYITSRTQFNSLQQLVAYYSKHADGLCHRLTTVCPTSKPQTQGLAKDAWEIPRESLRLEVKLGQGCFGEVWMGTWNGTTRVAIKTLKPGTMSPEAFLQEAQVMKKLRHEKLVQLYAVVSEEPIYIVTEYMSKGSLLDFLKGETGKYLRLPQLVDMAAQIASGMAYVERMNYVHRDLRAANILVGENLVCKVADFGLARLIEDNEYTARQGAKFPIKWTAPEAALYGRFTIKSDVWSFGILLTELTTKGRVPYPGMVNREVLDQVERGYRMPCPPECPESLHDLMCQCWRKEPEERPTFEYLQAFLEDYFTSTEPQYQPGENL

[4] = target: T4, panel of 255 (vepafestinib) or 256 (all other inhibitors) recombinant kinases (Homo sapiens, UniProt P52333); experiment: as above; assay type: biochemical; conditions: 17 nM
T4 construct: purchased Carna Biosciences
T4 sequence (P52333 whole entry): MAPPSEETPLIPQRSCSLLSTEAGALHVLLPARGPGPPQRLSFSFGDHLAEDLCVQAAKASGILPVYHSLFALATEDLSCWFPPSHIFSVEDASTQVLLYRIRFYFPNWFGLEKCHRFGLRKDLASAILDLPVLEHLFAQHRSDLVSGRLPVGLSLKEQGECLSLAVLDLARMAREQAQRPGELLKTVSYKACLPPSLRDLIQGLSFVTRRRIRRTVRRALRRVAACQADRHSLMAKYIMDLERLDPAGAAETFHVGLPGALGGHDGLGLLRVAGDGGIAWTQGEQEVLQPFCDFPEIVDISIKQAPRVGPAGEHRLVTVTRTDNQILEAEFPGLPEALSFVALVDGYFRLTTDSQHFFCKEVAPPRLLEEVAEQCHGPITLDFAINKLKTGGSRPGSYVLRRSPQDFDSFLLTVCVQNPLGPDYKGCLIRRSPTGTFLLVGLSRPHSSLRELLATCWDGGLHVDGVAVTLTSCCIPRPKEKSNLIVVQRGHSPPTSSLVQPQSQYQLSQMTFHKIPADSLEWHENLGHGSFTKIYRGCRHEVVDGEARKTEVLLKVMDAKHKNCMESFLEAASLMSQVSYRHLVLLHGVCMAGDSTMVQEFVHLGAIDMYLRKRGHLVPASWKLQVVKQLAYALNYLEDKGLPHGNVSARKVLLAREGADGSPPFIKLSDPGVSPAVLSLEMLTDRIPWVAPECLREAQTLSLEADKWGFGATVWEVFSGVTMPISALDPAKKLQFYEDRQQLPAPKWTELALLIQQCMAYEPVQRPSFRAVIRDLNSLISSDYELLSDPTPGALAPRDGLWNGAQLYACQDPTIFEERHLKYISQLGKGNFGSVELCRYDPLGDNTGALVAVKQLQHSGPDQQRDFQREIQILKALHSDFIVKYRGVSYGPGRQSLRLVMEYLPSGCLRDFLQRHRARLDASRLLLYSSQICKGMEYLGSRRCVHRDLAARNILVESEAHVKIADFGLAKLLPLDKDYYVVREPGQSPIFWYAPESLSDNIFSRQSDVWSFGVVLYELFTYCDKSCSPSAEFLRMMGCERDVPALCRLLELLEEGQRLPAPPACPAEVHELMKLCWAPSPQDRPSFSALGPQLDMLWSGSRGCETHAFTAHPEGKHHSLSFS

[5] = target: T5, panel of 255 (vepafestinib) or 256 (all other inhibitors) recombinant kinases (Homo sapiens, UniProt P04629); experiment: as above; assay type: biochemical; conditions: 17 nM
T5 construct: purchased Carna Biosciences

[6] = test system: RET phosphorylation at Y905 and Y1062 and downstream effectors; experiment: Western blotting of serum-starved LUAD-0002AS1, ECLC5B and TT cells, 2 h; assay type: cell-based, human; conditions: 50 nM
Method: Serum-starved cells were treated with 5, 50 or 500 nM inhibitor for 2 h, and then protein phosphorylation levels were examined (Fig. 3a). […] We performed additional dose–response western blotting studies using lower inhibitor concentrations. Immunoblots were quantitated by densitometry, and the EC50 for phosphorylation inhibition was estimated (Extended Data Fig. 4). […] Quantitation of immunoblots is shown in Extended Data Fig. 4c,d.
Following treatment, whole-cell extracts were prepared and subjected to western blotting analysis. Representative immunoblots from two independent experiments are shown. GAPDH was used as a loading control. RSK, ribosomal protein S6 kinase; S6RP, S6 ribosomal protein. b,c, Cells were plated in 96-well plates and treated for 96 h with the inhibitors shown. The number of viable cells was assessed using alamarBlue. b, Viability curves for control HBEC cells (HBECp53-EV) and HBEC cells with the CCDC6-RET fusion (HBECp53-RET) are shown at the left. […] Data were analyzed by non-linear regression, and IC50 values were estimated by curve fitting. […]
See Supplementary Table 4 for a complete list of antibodies and dilutions used. […] The bands of the target proteins were detected with SuperSignal West Dura Extended Duration Substrate (Thermo Fisher Scientific) by the Amersham Imager 600 QC (Cytiva) or exposed to X-ray film and visualized using a Kodak X-ray developer.

[7] = test system: NIH-3T3 CCDC6-RET luciferase cells implanted intracranially; experiment: Intracranial efficacy study; assay type: in vivo, nude mice; conditions: 50 mg per kg BID from day 5 after implantation
KDR = target: T6, KDR (Homo sapiens, UniProt P35968); experiment: Dose-response IC50 on off-target kinases; assay type: biochemical
T6 construct: purchased Carna Biosciences
T6 sequence (P35968 20-1356): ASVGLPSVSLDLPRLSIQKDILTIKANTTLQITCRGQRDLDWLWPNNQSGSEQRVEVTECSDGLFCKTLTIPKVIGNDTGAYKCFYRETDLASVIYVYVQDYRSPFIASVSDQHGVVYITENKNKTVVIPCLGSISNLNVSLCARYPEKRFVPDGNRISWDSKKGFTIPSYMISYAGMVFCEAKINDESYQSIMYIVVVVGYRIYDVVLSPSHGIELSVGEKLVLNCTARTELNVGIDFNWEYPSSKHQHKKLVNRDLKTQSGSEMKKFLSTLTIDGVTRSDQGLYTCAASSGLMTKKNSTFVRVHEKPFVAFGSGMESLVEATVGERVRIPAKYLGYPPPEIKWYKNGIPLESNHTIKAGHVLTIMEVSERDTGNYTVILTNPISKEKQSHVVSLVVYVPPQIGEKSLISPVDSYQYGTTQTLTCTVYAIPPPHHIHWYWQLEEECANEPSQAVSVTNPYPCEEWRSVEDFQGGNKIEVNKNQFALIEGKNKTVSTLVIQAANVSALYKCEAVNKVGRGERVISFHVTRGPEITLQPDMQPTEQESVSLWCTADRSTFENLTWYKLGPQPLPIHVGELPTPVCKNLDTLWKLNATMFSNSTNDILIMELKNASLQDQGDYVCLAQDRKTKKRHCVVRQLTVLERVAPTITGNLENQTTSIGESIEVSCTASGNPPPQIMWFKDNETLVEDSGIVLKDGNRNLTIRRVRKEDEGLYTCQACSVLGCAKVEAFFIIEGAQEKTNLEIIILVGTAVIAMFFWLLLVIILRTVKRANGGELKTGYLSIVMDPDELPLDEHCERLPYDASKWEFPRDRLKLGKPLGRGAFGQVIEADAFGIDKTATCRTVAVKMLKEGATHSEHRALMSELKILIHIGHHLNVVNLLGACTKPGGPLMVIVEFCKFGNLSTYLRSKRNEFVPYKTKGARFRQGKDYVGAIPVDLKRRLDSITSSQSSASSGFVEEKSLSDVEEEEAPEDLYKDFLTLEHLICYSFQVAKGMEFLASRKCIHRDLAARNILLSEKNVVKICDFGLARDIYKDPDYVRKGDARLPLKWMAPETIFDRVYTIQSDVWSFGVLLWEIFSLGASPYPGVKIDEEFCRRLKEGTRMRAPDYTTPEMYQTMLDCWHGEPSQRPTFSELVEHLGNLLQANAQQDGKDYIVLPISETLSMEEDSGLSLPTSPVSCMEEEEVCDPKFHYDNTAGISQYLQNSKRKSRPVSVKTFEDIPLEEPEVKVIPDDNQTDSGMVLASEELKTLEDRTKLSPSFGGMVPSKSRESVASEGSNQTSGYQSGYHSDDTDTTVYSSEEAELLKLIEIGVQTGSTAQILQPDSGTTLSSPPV

[8] = target: T7, panel of 255 (vepafestinib) or 256 (all other inhibitors) recombinant kinases (Homo sapiens, UniProt P42684); experiment: Kinase selectivity profiling at a single concentration (Carna Biosciences); assay type: biochemical; conditions: 23 nM
T7 construct: purchased Carna Biosciences

[9] = target: T8, panel of 255 (vepafestinib) or 256 (all other inhibitors) recombinant kinases (Homo sapiens, UniProt P07948); experiment: as above; assay type: biochemical; conditions: 23 nM
T8 construct: purchased Carna Biosciences

[10] = target: T9, panel of 255 (vepafestinib) or 256 (all other inhibitors) recombinant kinases (Homo sapiens, UniProt Q13177); experiment: as above; assay type: biochemical; conditions: 23 nM
T9 construct: purchased Carna Biosciences

[11] = target: T10, panel of 255 (vepafestinib) or 256 (all other inhibitors) recombinant kinases (Homo sapiens, UniProt Q9Y6E0); experiment: as above; assay type: biochemical; conditions: 23 nM
T10 construct: purchased Carna Biosciences

[12] = target: T11, panel of 255 (vepafestinib) or 256 (all other inhibitors) recombinant kinases (Homo sapiens, UniProt P29376); experiment: as above; assay type: biochemical; conditions: 23 nM
T11 construct: purchased Carna Biosciences
T11 sequence (P29376 17-864): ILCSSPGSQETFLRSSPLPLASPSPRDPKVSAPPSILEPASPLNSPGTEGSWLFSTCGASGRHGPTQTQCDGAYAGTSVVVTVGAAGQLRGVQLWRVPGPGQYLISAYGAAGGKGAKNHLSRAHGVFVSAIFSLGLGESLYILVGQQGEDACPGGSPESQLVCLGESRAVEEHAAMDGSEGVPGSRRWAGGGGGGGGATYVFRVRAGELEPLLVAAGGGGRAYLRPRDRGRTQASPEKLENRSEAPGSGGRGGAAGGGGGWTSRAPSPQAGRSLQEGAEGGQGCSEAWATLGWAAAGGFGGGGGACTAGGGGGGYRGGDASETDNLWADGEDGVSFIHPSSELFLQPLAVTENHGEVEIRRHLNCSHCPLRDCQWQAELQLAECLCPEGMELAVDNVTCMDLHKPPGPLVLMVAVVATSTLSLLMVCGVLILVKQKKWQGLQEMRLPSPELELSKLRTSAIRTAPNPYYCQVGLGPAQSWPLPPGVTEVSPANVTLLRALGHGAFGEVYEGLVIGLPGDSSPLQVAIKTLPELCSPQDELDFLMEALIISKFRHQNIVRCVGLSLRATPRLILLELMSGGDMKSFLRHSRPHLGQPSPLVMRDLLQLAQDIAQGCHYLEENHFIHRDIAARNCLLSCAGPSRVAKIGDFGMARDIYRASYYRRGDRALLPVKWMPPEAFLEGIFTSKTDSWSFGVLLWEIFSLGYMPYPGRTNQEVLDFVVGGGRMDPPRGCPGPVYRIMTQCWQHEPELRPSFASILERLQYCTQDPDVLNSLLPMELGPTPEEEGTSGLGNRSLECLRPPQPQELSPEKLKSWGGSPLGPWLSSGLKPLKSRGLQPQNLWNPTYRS

[13] = target: T12, panel of 255 (vepafestinib) or 256 (all other inhibitors) recombinant kinases (Homo sapiens, UniProt P17252); experiment: as above; assay type: biochemical; conditions: 23 nM
T12 construct: purchased Carna Biosciences

[14] = target: T13, panel of 255 (vepafestinib) or 256 (all other inhibitors) recombinant kinases (Homo sapiens, UniProt Q9P0L2); experiment: as above; assay type: biochemical; conditions: 23 nM
T13 construct: purchased Carna Biosciences

[15] = target: T14, panel of 255 (vepafestinib) or 256 (all other inhibitors) recombinant kinases (Homo sapiens, UniProt Q15303); experiment: as above; assay type: biochemical; conditions: 23 nM
T14 construct: purchased Carna Biosciences
T14 sequence (Q15303 26-1308): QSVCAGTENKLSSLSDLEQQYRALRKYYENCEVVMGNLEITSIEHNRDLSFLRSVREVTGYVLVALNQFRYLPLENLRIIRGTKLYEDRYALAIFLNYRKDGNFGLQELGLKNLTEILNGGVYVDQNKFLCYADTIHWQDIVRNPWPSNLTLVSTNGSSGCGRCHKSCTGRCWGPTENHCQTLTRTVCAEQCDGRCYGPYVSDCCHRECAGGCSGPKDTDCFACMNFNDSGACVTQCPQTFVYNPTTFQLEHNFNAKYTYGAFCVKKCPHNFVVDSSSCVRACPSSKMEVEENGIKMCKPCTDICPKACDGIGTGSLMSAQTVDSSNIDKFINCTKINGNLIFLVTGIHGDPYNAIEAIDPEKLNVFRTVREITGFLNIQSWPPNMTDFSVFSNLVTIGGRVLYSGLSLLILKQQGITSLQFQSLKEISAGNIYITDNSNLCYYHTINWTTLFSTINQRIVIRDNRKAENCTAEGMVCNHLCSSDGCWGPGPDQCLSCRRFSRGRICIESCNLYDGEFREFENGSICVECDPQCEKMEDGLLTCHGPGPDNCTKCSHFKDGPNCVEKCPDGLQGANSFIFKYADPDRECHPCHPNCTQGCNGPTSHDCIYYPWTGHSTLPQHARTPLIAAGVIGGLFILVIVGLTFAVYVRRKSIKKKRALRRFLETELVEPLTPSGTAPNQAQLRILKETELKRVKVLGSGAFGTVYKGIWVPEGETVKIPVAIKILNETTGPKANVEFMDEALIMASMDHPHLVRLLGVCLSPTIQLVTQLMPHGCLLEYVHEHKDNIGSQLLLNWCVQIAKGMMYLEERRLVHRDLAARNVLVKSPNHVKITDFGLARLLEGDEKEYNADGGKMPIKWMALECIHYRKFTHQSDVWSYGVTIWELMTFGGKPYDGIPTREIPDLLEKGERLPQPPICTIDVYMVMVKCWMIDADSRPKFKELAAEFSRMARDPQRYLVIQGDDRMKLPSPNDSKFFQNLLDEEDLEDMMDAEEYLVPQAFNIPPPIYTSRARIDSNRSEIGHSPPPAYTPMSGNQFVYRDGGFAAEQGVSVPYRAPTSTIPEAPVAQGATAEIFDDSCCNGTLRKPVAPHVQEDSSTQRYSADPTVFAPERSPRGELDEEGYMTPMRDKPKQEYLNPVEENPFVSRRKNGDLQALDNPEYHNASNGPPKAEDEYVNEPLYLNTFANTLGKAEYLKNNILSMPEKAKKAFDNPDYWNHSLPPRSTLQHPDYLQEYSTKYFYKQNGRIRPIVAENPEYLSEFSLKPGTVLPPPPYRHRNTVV

[16] = target: T15, panel of 255 (vepafestinib) or 256 (all other inhibitors) recombinant kinases (Homo sapiens, UniProt P41743); experiment: as above; assay type: biochemical; conditions: 22 nM
T15 construct: purchased Carna Biosciences

[17] = target: T16, panel of 255 (vepafestinib) or 256 (all other inhibitors) recombinant kinases (Homo sapiens, UniProt P24941); experiment: as above; assay type: biochemical; conditions: 22 nM
T16 construct: purchased Carna Biosciences

CO[C@]1(C(=O)N[C@@H](C)c2ccc(-n3cc(F)cn3)nc2)CC[C@H](c2nc(C)cc(Nc3cc(C)[nH]n3)n2)CC1 [Pralsetinib]
% Inhibiton FMS [1]: 25.5%
% Inhibiton DDR2 [2]: 72.5%
% Inhibiton SRC [3]: 34.5%
% Inhibiton JAK3 [4]: 72.3%
% Inhibiton TRKA [5]: 40.8%

COCc1ccc(NC(=O)c2c(C#CCN3CCOCC3)n(C3(C)CC3)c3ncnc(N)c23)cc1 [Vepafestinib, 4-amino-N-[4-(methoxymethyl)phenyl]-7-(1-methylcyclopropyl)-6-[3-(morpholin-4-yl)prop-1-yn-1-yl]-7H-pyrrolo[2,3-d]pyrimidine-5-carboxamide]
inhibition of phosphorylation of RET and downstream effectors [6]: Near-complete inhibition
median survival [7]: 52 days
IC50 (KDR): 0.172 µM
% Inhibiton ARG [8]: 7.3%
% Inhibiton LYNa [9]: 6.7%
% Inhibiton PAK2 [10]: 19%
% Inhibiton MST3 [11]: 13.4%
% Inhibiton LTK [12]: 11.3%
% Inhibiton PKCα [13]: 9.1%
% Inhibiton MARK1 [14]: 6.5%
% Inhibiton HER4 [15]: 9.5%

COc1ccc(CN2C3CC2CN(c2ccc(-c4cc(OCC(C)(C)O)cn5ncc(C#N)c45)cn2)C3)cn1 [Selpercatinib]
% Inhibiton PKCι [16]: 12.7%
% Inhibiton CDK2/CycA2 [17]: 17.9%
